The results in this text go back to ChEMBL document CHEMBL5465560, “Selectivity Literature for EUbOPEN Chemogenomic Library” (2024).

In assay [1] the target is Tyrosine-protein kinase Yes (Homo sapiens) (UniProt P07947). Kind of assay: Selectivity interaction (KinomeScan (DiscoverX)) EUB0000607a YES1. The note with it: at 10 µM.
Assay [2] concerns Epidermal growth factor receptor (Homo sapiens), P00533 [G719S]. The settings on record: at 10 µM.
Assay [3] concerns the target T1, Ephrin type-B receptor 1 (Homo sapiens) (UniProt P54762).
T1 sequence (whole entry): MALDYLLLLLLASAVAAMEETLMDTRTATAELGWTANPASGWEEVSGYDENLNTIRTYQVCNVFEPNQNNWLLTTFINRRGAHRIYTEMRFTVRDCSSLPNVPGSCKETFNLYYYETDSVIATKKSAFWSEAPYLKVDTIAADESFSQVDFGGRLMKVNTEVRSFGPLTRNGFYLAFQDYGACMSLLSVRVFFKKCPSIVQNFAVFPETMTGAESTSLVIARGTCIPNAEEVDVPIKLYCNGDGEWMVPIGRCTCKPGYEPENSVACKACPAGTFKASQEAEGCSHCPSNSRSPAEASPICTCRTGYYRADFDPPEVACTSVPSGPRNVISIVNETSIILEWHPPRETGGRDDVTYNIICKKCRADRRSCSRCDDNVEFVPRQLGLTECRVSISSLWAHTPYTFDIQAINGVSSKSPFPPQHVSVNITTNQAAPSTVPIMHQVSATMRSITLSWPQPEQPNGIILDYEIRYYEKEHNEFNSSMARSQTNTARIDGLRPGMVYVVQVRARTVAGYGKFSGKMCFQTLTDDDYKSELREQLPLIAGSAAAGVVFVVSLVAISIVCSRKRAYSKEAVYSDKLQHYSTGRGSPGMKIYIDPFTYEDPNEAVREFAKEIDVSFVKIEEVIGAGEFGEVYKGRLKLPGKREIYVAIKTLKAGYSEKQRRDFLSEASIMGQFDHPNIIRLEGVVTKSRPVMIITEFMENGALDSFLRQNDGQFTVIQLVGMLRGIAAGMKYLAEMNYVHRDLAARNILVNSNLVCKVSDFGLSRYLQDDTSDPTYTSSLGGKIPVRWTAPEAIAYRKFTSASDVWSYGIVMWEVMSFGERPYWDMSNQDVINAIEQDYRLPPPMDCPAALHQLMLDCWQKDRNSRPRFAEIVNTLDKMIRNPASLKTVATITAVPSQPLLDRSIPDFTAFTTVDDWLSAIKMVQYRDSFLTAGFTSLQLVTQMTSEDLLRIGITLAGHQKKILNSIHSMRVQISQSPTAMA
Kind of assay: Selectivity interaction (KinomeScan (DiscoverX)) EUB0000666a EPHB1. The settings on record: at 10 µM.

Assay [4] concerns the target Serine/threonine-protein kinase PAK 6 (Homo sapiens) (UniProt Q9NQU5). The assay can be described thus: Selectivity interaction (KinomeScan (DiscoverX)) EUB0001079a PAK6. The note with it: at 1 µM.
Assay [5] has as its target Serine/threonine-protein kinase PAK 3 (Homo sapiens) (UniProt O75914). Kind of assay: Selectivity interaction (KinaseProfiler screening (Millipore)) EUB0000601a PAK3. The settings on record: at 3 µM.
Assay [6] concerns the target MAP kinase-activated protein kinase 2 (Homo sapiens, UniProt P49137). The assay can be described thus: Selectivity interaction (Kinase panel (33PanQinase(R) Activity Assay)) EUB0000877a MAPKAPK2.
Assay [7] concerns the target Ribosomal protein S6 kinase alpha-4 (Homo sapiens) (UniProt O75676). Kind of assay: Selectivity interaction (Kinase panel (Invitrogen)) EUB0000639a RPS6KA4. The note with it: at 200 nM.
Assay [8] has as its target T2, Protein arginine N-methyltransferase 7 (Homo sapiens) (UniProt Q9NVM4).
T2 sequence (whole entry): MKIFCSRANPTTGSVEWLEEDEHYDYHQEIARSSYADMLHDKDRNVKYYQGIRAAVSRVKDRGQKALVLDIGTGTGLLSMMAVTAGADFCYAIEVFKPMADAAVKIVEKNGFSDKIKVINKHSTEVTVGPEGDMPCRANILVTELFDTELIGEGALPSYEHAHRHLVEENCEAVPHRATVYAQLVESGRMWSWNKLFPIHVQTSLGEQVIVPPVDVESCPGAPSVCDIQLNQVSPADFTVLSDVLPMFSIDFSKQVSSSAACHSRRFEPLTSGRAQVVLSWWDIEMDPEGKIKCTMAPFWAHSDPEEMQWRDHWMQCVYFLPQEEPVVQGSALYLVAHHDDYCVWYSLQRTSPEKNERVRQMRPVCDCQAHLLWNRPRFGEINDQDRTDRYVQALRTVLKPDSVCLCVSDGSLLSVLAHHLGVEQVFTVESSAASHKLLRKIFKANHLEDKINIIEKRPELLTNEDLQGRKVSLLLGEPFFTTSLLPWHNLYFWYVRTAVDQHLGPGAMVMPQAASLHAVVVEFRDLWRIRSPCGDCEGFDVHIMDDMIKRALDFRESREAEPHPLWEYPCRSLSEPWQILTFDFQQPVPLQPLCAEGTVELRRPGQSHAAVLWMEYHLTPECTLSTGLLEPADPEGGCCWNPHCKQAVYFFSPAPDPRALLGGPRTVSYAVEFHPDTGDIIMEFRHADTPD
Kind of assay: Selectivity interaction (Transferase panel (protein, RNA, and DNA methyltransferases. and EP300 (acetyltransferase))) EUB0000270b PRMT7.

In assay [9] the target is Tyrosine-protein kinase FRK (Homo sapiens) (UniProt P42685). The assay can be described thus: Selectivity interaction (KinomeScan (DiscoverX)) EUB0000618a FRK. The note with it: at 10 µM.
Chain of Tyrosine-protein kinase FRK (Homo sapiens) (P42685 whole entry): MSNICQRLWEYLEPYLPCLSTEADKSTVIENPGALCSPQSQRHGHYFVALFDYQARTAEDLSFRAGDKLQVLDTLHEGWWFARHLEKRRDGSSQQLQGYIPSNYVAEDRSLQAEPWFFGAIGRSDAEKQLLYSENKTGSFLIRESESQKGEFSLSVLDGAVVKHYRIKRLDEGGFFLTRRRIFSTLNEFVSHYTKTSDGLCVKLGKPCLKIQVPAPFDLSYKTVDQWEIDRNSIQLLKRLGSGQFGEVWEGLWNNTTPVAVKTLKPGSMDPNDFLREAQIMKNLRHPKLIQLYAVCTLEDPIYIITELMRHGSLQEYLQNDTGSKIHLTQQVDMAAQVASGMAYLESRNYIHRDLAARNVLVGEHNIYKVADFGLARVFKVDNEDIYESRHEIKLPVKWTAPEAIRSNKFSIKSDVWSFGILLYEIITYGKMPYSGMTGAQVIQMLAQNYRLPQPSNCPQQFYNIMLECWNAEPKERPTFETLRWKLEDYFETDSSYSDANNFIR

Chain of Ribosomal protein S6 kinase alpha-4 (Homo sapiens) (O75676 whole entry, looked up): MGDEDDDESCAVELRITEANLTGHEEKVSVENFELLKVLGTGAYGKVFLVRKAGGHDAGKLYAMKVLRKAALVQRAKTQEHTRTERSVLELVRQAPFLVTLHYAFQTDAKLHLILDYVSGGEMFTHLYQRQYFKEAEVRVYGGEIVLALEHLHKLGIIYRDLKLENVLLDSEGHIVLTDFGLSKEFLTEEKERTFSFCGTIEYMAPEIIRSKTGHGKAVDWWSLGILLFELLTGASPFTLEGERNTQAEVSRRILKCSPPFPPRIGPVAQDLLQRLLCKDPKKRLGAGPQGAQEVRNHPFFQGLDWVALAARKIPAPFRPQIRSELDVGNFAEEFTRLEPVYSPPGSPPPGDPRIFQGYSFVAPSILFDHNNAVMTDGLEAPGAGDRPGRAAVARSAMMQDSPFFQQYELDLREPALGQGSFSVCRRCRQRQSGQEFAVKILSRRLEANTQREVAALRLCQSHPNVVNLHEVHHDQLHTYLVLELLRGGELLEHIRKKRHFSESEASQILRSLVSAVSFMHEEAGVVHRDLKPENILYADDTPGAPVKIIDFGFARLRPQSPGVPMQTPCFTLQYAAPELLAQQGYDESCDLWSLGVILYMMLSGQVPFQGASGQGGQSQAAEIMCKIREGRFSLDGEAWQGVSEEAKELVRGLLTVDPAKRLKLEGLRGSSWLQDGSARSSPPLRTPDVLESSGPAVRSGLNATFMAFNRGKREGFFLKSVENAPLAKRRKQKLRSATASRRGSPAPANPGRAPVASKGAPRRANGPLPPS
Chain of Serine/threonine-protein kinase PAK 6 (Homo sapiens) (Q9NQU5 whole entry, looked up): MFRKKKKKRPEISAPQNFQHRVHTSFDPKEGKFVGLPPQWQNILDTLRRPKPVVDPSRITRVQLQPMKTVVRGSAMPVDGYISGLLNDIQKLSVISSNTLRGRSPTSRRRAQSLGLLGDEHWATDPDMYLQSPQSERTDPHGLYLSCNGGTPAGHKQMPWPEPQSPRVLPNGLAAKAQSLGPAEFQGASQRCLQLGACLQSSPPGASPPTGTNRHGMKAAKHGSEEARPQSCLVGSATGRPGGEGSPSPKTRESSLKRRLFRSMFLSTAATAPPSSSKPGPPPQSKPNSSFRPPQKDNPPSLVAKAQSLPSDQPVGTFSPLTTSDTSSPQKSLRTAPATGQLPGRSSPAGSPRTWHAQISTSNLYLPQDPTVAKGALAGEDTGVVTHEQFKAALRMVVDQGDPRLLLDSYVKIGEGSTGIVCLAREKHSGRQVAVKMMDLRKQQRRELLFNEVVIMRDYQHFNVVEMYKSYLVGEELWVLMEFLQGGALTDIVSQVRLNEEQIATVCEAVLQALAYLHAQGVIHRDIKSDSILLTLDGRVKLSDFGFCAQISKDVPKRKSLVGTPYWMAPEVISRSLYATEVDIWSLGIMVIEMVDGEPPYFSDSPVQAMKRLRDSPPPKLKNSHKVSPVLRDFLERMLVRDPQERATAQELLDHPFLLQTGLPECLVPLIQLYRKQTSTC
Chain of MAP kinase-activated protein kinase 2 (P49137 whole entry): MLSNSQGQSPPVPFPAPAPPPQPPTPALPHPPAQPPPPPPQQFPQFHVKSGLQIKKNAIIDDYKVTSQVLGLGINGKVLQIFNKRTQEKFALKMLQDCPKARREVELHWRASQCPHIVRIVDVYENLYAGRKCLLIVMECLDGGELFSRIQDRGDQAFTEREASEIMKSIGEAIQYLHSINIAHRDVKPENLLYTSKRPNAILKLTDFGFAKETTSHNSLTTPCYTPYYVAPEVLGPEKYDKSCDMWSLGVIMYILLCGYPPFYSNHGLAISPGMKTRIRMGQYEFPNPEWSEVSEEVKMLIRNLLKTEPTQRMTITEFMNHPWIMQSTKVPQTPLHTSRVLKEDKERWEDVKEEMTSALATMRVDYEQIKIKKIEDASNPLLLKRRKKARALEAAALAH
Chain of Tyrosine-protein kinase Yes (Homo sapiens) (P07947 2-543 limits assumed): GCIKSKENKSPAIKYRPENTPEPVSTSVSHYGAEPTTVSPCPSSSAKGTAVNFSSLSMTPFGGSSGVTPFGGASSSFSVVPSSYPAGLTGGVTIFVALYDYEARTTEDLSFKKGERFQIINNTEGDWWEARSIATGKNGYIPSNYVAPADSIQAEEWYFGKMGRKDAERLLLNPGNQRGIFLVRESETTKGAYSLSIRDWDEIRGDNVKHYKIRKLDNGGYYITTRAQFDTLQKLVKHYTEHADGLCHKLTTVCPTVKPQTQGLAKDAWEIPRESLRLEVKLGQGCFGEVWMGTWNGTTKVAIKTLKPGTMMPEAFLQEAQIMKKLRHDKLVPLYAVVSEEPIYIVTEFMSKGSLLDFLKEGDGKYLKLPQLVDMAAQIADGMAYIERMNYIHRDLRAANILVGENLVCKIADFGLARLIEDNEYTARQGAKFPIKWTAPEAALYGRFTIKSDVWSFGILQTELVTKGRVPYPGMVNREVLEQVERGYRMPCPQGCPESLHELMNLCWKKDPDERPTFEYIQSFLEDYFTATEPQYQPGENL
Chain of Epidermal growth factor receptor (Homo sapiens), P00533 [G719S] (P00533 whole entry G719S): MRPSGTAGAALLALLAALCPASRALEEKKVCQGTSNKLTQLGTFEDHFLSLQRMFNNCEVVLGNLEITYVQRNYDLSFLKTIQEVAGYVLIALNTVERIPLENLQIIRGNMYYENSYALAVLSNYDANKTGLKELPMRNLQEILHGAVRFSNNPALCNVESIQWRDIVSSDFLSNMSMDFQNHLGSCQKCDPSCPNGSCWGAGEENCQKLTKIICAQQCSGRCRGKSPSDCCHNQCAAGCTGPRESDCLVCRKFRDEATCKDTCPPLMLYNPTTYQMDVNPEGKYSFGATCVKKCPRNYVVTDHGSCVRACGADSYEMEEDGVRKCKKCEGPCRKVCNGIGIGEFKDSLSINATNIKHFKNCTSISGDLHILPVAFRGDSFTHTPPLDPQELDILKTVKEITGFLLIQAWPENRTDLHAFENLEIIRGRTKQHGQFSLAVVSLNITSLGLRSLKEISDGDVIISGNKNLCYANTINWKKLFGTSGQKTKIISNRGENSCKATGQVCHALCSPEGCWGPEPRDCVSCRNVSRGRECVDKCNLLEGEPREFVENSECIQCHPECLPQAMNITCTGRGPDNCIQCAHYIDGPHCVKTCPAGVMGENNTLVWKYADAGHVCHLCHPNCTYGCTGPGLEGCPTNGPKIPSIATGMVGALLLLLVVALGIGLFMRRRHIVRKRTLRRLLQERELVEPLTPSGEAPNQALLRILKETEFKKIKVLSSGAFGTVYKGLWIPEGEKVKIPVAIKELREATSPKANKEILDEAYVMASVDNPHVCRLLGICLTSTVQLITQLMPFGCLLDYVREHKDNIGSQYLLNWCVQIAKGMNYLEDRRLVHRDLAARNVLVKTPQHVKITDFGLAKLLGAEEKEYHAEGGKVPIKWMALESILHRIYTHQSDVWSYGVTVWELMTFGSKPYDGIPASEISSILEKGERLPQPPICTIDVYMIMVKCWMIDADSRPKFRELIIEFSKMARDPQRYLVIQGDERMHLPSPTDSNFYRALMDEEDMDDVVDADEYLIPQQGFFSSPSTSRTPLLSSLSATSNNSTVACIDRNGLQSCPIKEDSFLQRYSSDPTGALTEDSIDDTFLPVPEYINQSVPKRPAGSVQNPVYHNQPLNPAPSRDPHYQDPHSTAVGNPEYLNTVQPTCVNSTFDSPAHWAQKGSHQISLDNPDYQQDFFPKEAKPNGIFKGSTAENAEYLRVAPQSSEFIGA
Chain of Serine/threonine-protein kinase PAK 3 (Homo sapiens) (O75914 whole entry, looked up): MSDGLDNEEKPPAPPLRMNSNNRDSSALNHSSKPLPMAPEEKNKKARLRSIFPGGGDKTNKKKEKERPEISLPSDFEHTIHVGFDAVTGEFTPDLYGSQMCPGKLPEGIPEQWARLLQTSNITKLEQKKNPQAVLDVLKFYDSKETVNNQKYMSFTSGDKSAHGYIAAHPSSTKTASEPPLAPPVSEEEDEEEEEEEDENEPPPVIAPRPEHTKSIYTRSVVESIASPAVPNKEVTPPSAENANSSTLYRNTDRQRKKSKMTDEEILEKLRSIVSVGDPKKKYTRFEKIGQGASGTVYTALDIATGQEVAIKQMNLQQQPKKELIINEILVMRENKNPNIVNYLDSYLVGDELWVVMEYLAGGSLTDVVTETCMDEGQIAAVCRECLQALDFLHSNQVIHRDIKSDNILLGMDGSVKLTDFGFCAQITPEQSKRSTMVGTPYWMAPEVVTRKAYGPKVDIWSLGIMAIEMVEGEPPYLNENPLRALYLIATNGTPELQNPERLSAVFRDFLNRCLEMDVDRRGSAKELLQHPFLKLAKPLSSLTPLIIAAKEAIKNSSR

In assay [1], `CNC(=O)Nc1ccc(-c2nc(N3CC4CCC(C3)O4)c3cnn(C4CCC5(CC4)OCCO5)c3n2)cc1` had a % of control of 97%.

`Cc1cc([C@@H](C)Nc2ccccc2C(=O)O)c2nc(N3CCOCC3)cc(=O)n2c1` [AZD-6482] returned a % of control in assay [2] of 98%.

In assay [3], `O=C(NOC[C@H](O)CO)c1ccc(F)c(F)c1Nc1ccc(I)cc1F` returned a % of control of 100%.

Regarding `Nc1cnc(N2CCc3cc(S(=O)(=O)Nc4c(F)cc(Cl)cc4F)cc(N4CCCC4=O)c32)nc1` [TP-020n], in assay [4], the % of control worked out at 100%.

In the case of `CCc1cc(Nc2nccc(-c3c(-c4ccc(OC)c(C(=O)Nc5c(F)cccc5F)c4)nc4ccccn34)n2)c(OC)cc1N1CCC(N2CCN(S(C)(=O)=O)CC2)CC1`, in [5], the % of inhibition was determined as 53%.

As to `CCC(=O)N1CC[C@H](Nc2ncnc3c2CN(c2cnc(OC)c(C(F)(F)F)c2)CC3)C1` [LENIOLISIB], in assay [6], the IC50 was above 10 µM.

Take `CC[C@@H]1[C@H](F)C(=O)N[C@@H]1COc1nccc2cc(C(N)=O)c(OC)cc12` [ZIMLOVISERTIB]: the % of inhibition in assay [7] came out at 4.43%.

`Cc1cc(CN)cc(C)c1-c1ncn(C)c1-c1cncn1C`: the % activity in assay [8] (at 1 µM) is above 90%; in assay [8] (at 10 µM), above 80%.

In the case of `O[C@H]1CC[C@H](Nc2ncc3nc(Nc4c(F)cc(F)cc4F)n([C@H]4CCOC4)c3n2)CC1`, the % of control in assay [9] came to 100%.

In general, IC50 refers to the concentration that gives 50% inhibition. A high value points to weaker potency in that assay.
